Molecules are shown by their SMILES.

Assay [1] concerns STIB 719/ILRAD 560 T. vivax (drug sensitive) strain. Briefly: Ex vivo Alamar Blue 48 hrs drug sensitivity assay for T. vivax. Type of assay: cell-based. The note with it: Trypanosoma vivax, STIB719; STIB 719/ILRAD 560 T. vivax bloodstream form, ex vivo, Alamar Blue, 48 hrs; read-out: T. vivax Act. As to the method: Ex vivo Alamar Blue48 hrs drug sensitivity assay for T. vivax. Compounds were tested ex vivo for chemotherapeutic efficacy against the STIB 719/ILRAD 560 T. vivax (drug sensitive) strain, using an Alamar Blue assay. Test compounds were prepared as 10 mg/mL DMSO stocks for each assay run. Compounds were assayed in at least three separate, independent test runs and an 11-point dilution curve was used to determine the IC50 values. Bloodstream form trypanosomes were propagated and harvested from a highly parasitaemic mouse (via cardiac puncture) and were incubated with test compounds for 45 hrs at 37° C. in a humidified atmosphere containing 5% CO2, supported in HMI media containing 20% bovine serum. Thereafter, 10 μL of Resazurin dye (12.5 mg in 100 mL of phosphate buffered saline, Sigma-Aldrich, Buchs, Switzerland) were added for an additional 3 hrs. Plates were then read using a fluorescent plate reader (Spectramax, Gemini XS, Bucher Biotec, Basel, Switzerland) using an excitation wavelength of 536 nm and an emission wavelength of 588 nm. Data points were averaged to generate sigmoidal dose-response curves and IC50 values were determined using Softmax Pro 5.2 software.
(Alamar Blue is a resazurin reagent that responds to reducing activity.)

The test system of assay [2] is IL3000 T. congolense (drug sensitive) strain. Briefly: In vitro Alamar Blue 72 hrs drug sensitivity assay for T. congolense. The note with it: Trypanosoma congolense, IL3000 T. congolense bloodstream form, read-out: T. congo Act. Type of assay: cell-based. As to the method: In Vitro Alamar Blue 72 Hrs Drug Sensitivity Assay for T. Congolense. Compounds were tested in vitro for chemotherapeutic efficacy against the IL3000 T. congolense (drug sensitive) strain using an Alamar Blue assay. Test compounds were prepared as 10 mg/mL DMSO stocks for each assay run. Compounds were assayed in at least three separate, independent test runs and an 11-point dilution curve was used to determine the IC50 values. Bloodstream form trypanosomes were supported in HMI media containing 20% bovine serum and were incubated with test compounds for 69 hrs at 34° C. in a humidified atmosphere containing 5% CO2. Thereafter, 10 μL of Resazurin dye (12.5 mg in 100 mL of phosphate buffered saline, Sigma-Aldrich, Buchs, Switzerland) were added for an additional 3 hrs. Plates were then read using a fluorescent plate reader (Spectramax, Gemini XS, Bucher Biotec, Basel, Switzerland) using an excitation wavelength of 536 nm and an emission wavelength of 588 nm. Data points were averaged to generate sigmoidal dose-response curves and IC50 values were determined using Softmax Pro 5.2 software.

Take `CC1(Nc2ncc3nc(Nc4cccc(Cl)c4)n([C@H]4CC[C@@H](CN)CC4)c3n2)CCC1` [A-2, 9-((1s,4s)-4-(aminomethyl)cyclohexyl)-N8-(3-chlorophenyl)-N2-(1-methylcyclobutyl)-9H-purine-2,8-diamine]: the IC50 in assay [1] and in assay [2] was below 150 nM in each case.
In the case of `CCC(C)(C)Nc1ncc2nc(Nc3cccc(Cl)c3)n([C@H]3CC[C@@H](CN)CC3)c2n1` [A-3, 9-((1s,4s)-4-(aminomethyl)cyclohexyl)-N8-(3-chlorophenyl)-N2-tert-pentyl-9H-purine-2,8-diamine], the IC50 in assay [1] and in assay [2] was below 150 nM throughout.
For the compound `CC(C)(C)Nc1ncc2nc(Nc3ccccn3)n(C3CCC(CN)CC3)c2n1` (stereo not shown) [A-6, 9-((1s,4s)-4-(aminomethyl)cyclohexyl)-N2-tert-butyl-N8-(pyridin-2-yl)-9H-purine-2,8-diamine], the values for the IC50 in assay [1] and in assay [2] were below 150 nM and 350 to 500 nM, respectively.
On to `CC1(Nc2ncc3nc(Nc4ccccn4)n(C4CCC(CN)CC4)c3n2)CCOCC1` (stereo not shown) [A-8, 9-((1s,4s)-4-(aminomethyl)cyclohexyl)-N2-(4-methyltetrahydro-2H-pyran-4-yl)-N8-(pyridin-2-yl)-9H-purine-2,8-diamine], for which the IC50 in assay [1] lay in the range of 150 to 350 nM; in assay [2], 350 to 500 nM.
For `CC1(Nc2ncc3nc(Nc4cccc(F)c4F)n(C4CCC(CN)CC4)c3n2)CCOCC1` (stereo not shown) [A-9, 9-((1s,4s)-4-(aminomethyl)cyclohexyl)-N8-(2,3-difluorophenyl)-N2-(4-methyltetrahydro-2H-pyran-4-yl)-9H-purine-2,8-diamine], in that order: below 150 nM and below 150 nM.
On to `CC1(Nc2ncc3nc(Nc4cccc(Cl)c4)n(C4CCC(O)CC4)c3n2)CCCC1` (stereo not shown) [A-10, (1s,4s)-4-(8-(3-chlorophenylamino)-2-(1-methylcyclopentylamino)-9H-purin-9-yl)cyclohexanol], for which the IC50 in assay [1] and in assay [2] was 350 to 500 nM in each case.
Regarding `CC1(Nc2ncc3nc(Nc4cccc(C(F)(F)F)c4)n(C4CCC(CN)CC4)c3n2)CCCC1` (stereo not shown) [A-12, 9-((1s,4s)-4-(aminomethyl)cyclohexyl)-N2-(1-methylcyclopentyl)-N8-(3-(trifluoromethyl)phenyl)-9H-purine-2,8-diamine], the IC50 lay within 150 to 350 nM in assay [1] and 350 to 500 nM in assay [2].
Taken in the same sequence, the figures for `COC(=O)NC[C@H]1CC[C@@H](n2c(Nc3cccc(Cl)c3)nc3cnc(NC4(C)CCOCC4)nc32)CC1` [A-14, methyl ((1s,4s)-4-(8-(3-chlorophenylamino)-2-(4-methyltetrahydro-2H-pyran-4-ylamino)-9H-purin-9-yl)cyclohexyl)methylcarbamate] were 350 to 500 nM and 150 to 350 nM.
For `CC(C)(C)Nc1ncc2nc(Nc3cccc(C(F)(F)F)c3)n([C@H]3CC[C@@H](CN)CC3)c2n1` [A-15, 9-((1s,4s)-4-(aminomethyl)cyclohexyl)-N2-tert-butyl-N8-(3-(trifluoromethyl)phenyl)-9H-purine-2,8-diamine], the IC50 in assay [1] and in assay [2] was below 150 nM in each case.
Consider `CC1(Nc2ncc3nc(Nc4ccc(C(F)(F)F)cc4)n(C4CCC(CN)CC4)c3n2)CCCC1` (stereo not shown) [A-16, 9-((1s,4s)-4-(aminomethyl)cyclohexyl)-N2-(1-methylcyclopentyl)-N8-(4-(trifluoromethyl)phenyl)-9H-purine-2,8-diamine], for which the IC50 in assay [1] and in assay [2] was 350 to 500 nM each time.
Regarding `CC(C)(C)Nc1ncc2nc(Nc3cccc(C(F)(F)F)c3)n([C@H]3CC[C@H](CN)CC3)c2n1` [A-17, 9-((1r,4r)-4-(aminomethyl)cyclohexyl)-N2-tert-butyl-N8-(3-(trifluoromethyl)phenyl)-9H-purine-2,8-diamine], the IC50 in assay [1] and in assay [2] was below 150 nM in each case.
`Cc1ccc(Nc2nc3cnc(NC(C)(C)C)nc3n2C2CCC(CN)CC2)cc1` (stereo not shown) [A-18, 9-((1r,4r)-4-(aminomethyl)cyclohexyl)-N2-tert-butyl-N8-p-tolyl-9H-purine-2,8-diamine]: the results for the IC50 in assay [1] and in assay [2] were 150 to 350 nM and 350 to 500 nM, respectively.
Turning to `CC1(Nc2ncc3nc(Nc4cccc(Cl)c4)n([C@H]4CC[C@@H](CO)CC4)c3n2)CCOCC1` [A-19, ((1s,4s)-4-(8-(3-chlorophenylamino)-2-(4-methyltetrahydro-2H-pyran-4-ylamino)-9H-purin-9-yl)cyclohexyl)methanol], the IC50 lay in the range of 150 to 350 nM in assay [1] and 350 to 500 nM in assay [2].
With `CC1(Nc2ncc3nc(Nc4cccc(Cl)c4)n([C@@H]4CCC[C@H](CN)C4)c3n2)CCOCC1` [A-20, 9-((1R,3S)-3-(aminomethyl)cyclohexyl)-N8-(3-chlorophenyl)-N2-(4-methyltetrahydro-2H-pyran-4-yl)-9H-purine-2,8-diamine], the IC50 in assay [1] was below 150 nM; in assay [2], 350 to 500 nM.
Turning to `CNC[C@H]1CC[C@@H](n2c(Nc3cccc(Cl)c3)nc3cnc(NC4(C)CCOCC4)nc32)CC1` [A-21, N8-(3-chlorophenyl)-9-((1s,4s)-4-((methylamino)methyl)cyclohexyl)-N2-(4-methyltetrahydro-2H-pyran-4-yl)-9H-purine-2,8-diamine], the IC50 in assay [1] and in assay [2] was below 150 nM in each case.
As to `CC(C)(C)Nc1ncc2nc(Nc3ccc(C(F)(F)F)cc3)n([C@H]3CC[C@@H](CN)CC3)c2n1` [A-22, 9-((1s,4s)-4-(aminomethyl)cyclohexyl)-N2-tert-butyl-N8-(4-(trifluoromethyl)phenyl)-9H-purine-2,8-diamine], the results for the IC50 in assay [1] and in assay [2] were 350 to 500 nM and 150 to 350 nM, respectively.
Take `CCC(C)(C)Nc1ncc2nc(Nc3ccc(C(F)(F)F)cc3)n([C@H]3CC[C@@H](CN)CC3)c2n1` [A-23, 9-((1s,4s)-4-(aminomethyl)cyclohexyl)-N2-tert-pentyl-N8-(4-(trifluoromethyl)phenyl)-9H-purine-2,8-diamine]: the IC50 in assay [1] and in assay [2] was 350 to 500 nM each time.
As to `CC1(Nc2ncc3nc(Nc4cccc(C(F)(F)F)c4)n(C4CCC(C#N)CC4)c3n2)CCOCC1` (stereo not shown) [A-24, (1s,4s)-4-(2-(4-methyltetrahydro-2H-pyran-4-ylamino)-8-(3-(trifluoromethyl)phenylamino)-9H-purin-9-yl)cyclohexanecarbonitrile], the IC50 in assay [1] and in assay [2] was 150 to 350 nM throughout.
Take `CC(=O)NC1CCC(n2c(Nc3cccc(Cl)c3)nc3cnc(NC4(C)CCOCC4)nc32)CC1` (stereo not shown) [A-25, N-((1s,4s)-4-(8-(3-chlorophenylamino)-2-(4-methyltetrahydro-2H-pyran-4-ylamino)-9H-purin-9-yl)cyclohexyl)acetamide]: the IC50 in assay [1] is below 150 nM; in assay [2], 350 to 500 nM.
With `CC1(Nc2ncc3nc(Nc4cccc(C(F)(F)F)c4)n(C4CCC(CN)CC4)c3n2)CCC1` (stereo not shown) [A-57, 9-((1s,4s)-4-(aminomethyl)cyclohexyl)-N2-(1-methylcyclobutyl)-N8-(3-(trifluoromethyl)phenyl)-9H-purine-2,8-diamine], the IC50 in assay [2] is below 150 nM.
Still for that read-out and setting: to `NCC1CCC(n2c(Nc3cccc(Cl)c3F)nc3cnc(NC4CCOCC4)nc32)CC1` (stereo not shown) [B-13, 9-((1s,4s)-4-(aminomethyl)cyclohexyl)-N8-(3-chloro-2-fluorophenyl)-N2-(tetrahydro-2H-pyran-4-yl)-9H-purine-2,8-diamine] belongs below 150 nM.

(Values after patent US10420772B2, “Animal and human anti-trypanosomonal and anti-leishmania agents” (Celgene Corporation, priority 2016, dated 2019).)
